Measurements from ChEMBL document CHEMBL1201862, “PubChem BioAssay data set” (2004).
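Values below derive from 48-hour exposures of cells grown in 96-well plates, with endpoints linearly interpolated between the two concentrations bracketing the appropriate inhibition level. At the GI50, growth is halved.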 Calls of active or inactive are those of the source. No stated cut-off is given here; in the data, active = GI50 up to about 1.1 µM and inactive = higher.

Experiments:
Assay in all cases: NCI-60 cell line screen, 48 h
DMS-273 = tested on: DMS-273
SK-OV-3 = tested on: SK-OV-3
A549 = tested on: A549
U-251 = tested on: U-251
UACC-257 = tested on: UACC-257
COLO 205 = tested on: COLO 205
SF-539 = tested on: SF-539
HCC 2998 = tested on: HCC 2998
SK-MEL-28 = tested on: SK-MEL-28
KM12 = tested on: KM12
UACC-62 = tested on: UACC-62
SN12C = tested on: SN12C
HOP-62 = tested on: HOP-62
OVCAR-3 = tested on: OVCAR-3
NCI-H226 = tested on: NCI-H226
DU-145 = tested on: DU-145
MDA-MB-435 = tested on: MDA-MB-435
BT-549 = tested on: BT-549
Hs-578T = tested on: Hs-578T
NCI/ADR-RES = tested on: NCI/ADR-RES

Measured: GI50

Cn1c2c([N+](=O)[O-])cccc2c(=O)c2c(O)cc3c(c21)C=CC(C)(C)O3
inactive: DMS-273 33.2 µM | SK-OV-3 46.7 µM | A549 34.8 µM | U-251 > 100 µM | UACC-257 46.5 µM | COLO 205 44.8 µM | SF-539 22.5 µM | HCC 2998 20.7 µM | SK-MEL-28 84.5 µM | KM12 23.2 µM | UACC-62 21.7 µM | SN12C 52 µM

OC12c3ccccc3C1CCCCCC21OCCCO1 (centres undefined)
inactive: DMS-273 > 100 µM | SK-OV-3 > 100 µM | A549 > 100 µM | U-251 > 100 µM | UACC-257 > 100 µM | COLO 205 > 100 µM | HOP-62 > 100 µM | SF-539 > 100 µM | SK-MEL-28 > 100 µM | OVCAR-3 > 100 µM | KM12 > 100 µM | NCI-H226 > 100 µM | UACC-62 > 100 µM | SN12C > 100 µM

NC(=S)N/C=C1\C(=O)Oc2ccccc2C1=O
inactive: DMS-273 > 100 µM | SK-OV-3 51.2 µM | A549 97.1 µM | U-251 43.8 µM | UACC-257 > 100 µM | COLO 205 > 100 µM | SF-539 34 µM | HCC 2998 66.8 µM | SK-MEL-28 > 100 µM | OVCAR-3 37.3 µM | KM12 > 100 µM | NCI-H226 21.9 µM | UACC-62 47.2 µM | SN12C 37.2 µM

CCOc1ccc(NC(=O)CC2SC(Nc3ccc(C)cc3C)=NC2=O)cc1 (centres undefined)
inactive: DMS-273 > 100 µM | A549 > 100 µM | U-251 36 µM | UACC-257 85.7 µM | SF-539 26.7 µM | HCC 2998 > 100 µM | SK-MEL-28 > 100 µM | OVCAR-3 48.8 µM | NCI-H226 84.3 µM | UACC-62 54.2 µM | SN12C > 100 µM

Cc1cccc2c1NC(=O)/C2=N\Nc1ccccc1[N+](=O)[O-]
inactive: SK-OV-3 4.34 µM | A549 4.49 µM | DU-145 17.7 µM | U-251 2.37 µM | UACC-257 13.8 µM | COLO 205 30.4 µM | HOP-62 3.52 µM | SF-539 2.12 µM | HCC 2998 7.11 µM | SK-MEL-28 37.3 µM | MDA-MB-435 22.6 µM | OVCAR-3 8.13 µM | BT-549 20.4 µM | Hs-578T 4.85 µM | KM12 6.93 µM | NCI-H226 10.3 µM | UACC-62 14.5 µM | NCI/ADR-RES 4.74 µM | SN12C 9.89 µM

CCOC(=O)C(CC(C)C)NC(=O)CSc1nnc(COc2ccc(Cl)cc2)n1-c1ccccc1 (centres undefined)
inactive: SK-OV-3 27.2 µM | A549 21.2 µM | DU-145 17.1 µM | U-251 19.3 µM | UACC-257 11.2 µM | COLO 205 18.2 µM | HOP-62 19.4 µM | SF-539 21.8 µM | HCC 2998 10.4 µM | SK-MEL-28 16.7 µM | MDA-MB-435 16.9 µM | OVCAR-3 10.5 µM | BT-549 17.7 µM | Hs-578T 22.3 µM | KM12 18 µM | NCI-H226 22.4 µM | UACC-62 16.4 µM | NCI/ADR-RES 20.5 µM | SN12C 15.6 µM

Cc1cc(C)n(C(=O)CSc2nnc(SCC(=O)n3nc(C)cc3C)s2)n1
inactive: SK-OV-3 > 100 µM | A549 > 100 µM | DU-145 > 100 µM | U-251 > 100 µM | UACC-257 > 100 µM | COLO 205 > 100 µM | HOP-62 80 µM | SF-539 > 100 µM | HCC 2998 > 100 µM | SK-MEL-28 > 100 µM | MDA-MB-435 > 100 µM | OVCAR-3 91.8 µM | BT-549 > 100 µM | Hs-578T 33.8 µM | KM12 > 100 µM | NCI-H226 > 100 µM | UACC-62 > 100 µM | NCI/ADR-RES > 100 µM | SN12C > 100 µM

Cc1nc(C)c(N2CCN(Cc3ccccc3)CC2)c(O)n1
inactive: SK-OV-3 > 100 µM | A549 > 100 µM | DU-145 > 100 µM | U-251 > 100 µM | UACC-257 > 100 µM | COLO 205 > 100 µM | HOP-62 > 100 µM | SF-539 > 100 µM | HCC 2998 > 100 µM | SK-MEL-28 > 100 µM | MDA-MB-435 > 100 µM | OVCAR-3 > 100 µM | BT-549 > 100 µM | Hs-578T > 100 µM | KM12 > 100 µM | NCI-H226 > 100 µM | UACC-62 > 100 µM | NCI/ADR-RES > 100 µM | SN12C > 100 µM

CCCCCCC(/C=N/O)C(C)(O)CCC (centres undefined)
inactive: DMS-273 > 100 µM | A549 > 100 µM | U-251 > 100 µM | UACC-257 > 100 µM | COLO 205 > 100 µM | HOP-62 > 100 µM | SF-539 > 100 µM | HCC 2998 > 100 µM | SK-MEL-28 > 100 µM | OVCAR-3 > 100 µM | KM12 > 100 µM | NCI-H226 > 100 µM | UACC-62 > 100 µM | SN12C > 100 µM

CCOc1ccc(N/C(=C(/C(Cl)=C(/Cl)NCCO)[N+](=O)[O-])n2nnc3ccccc32)cc1
inactive: SK-OV-3 12.8 µM | A549 44 µM | DU-145 12.9 µM | U-251 21.8 µM | UACC-257 41.3 µM | COLO 205 16.1 µM | HOP-62 66.7 µM | SF-539 34.5 µM | HCC 2998 79.4 µM | SK-MEL-28 18.7 µM | MDA-MB-435 16.4 µM | OVCAR-3 18.1 µM | BT-549 18.5 µM | Hs-578T 15.2 µM | KM12 24.8 µM | NCI-H226 > 100 µM | UACC-62 21.9 µM | NCI/ADR-RES 25.2 µM | SN12C 19.8 µM

COC(=O)C1=C(C(=O)OC)C2OC1C1C2C2(C)C(C)=C(C)C1(C)[S+]2[O-] (centres undefined)
inactive: SK-OV-3 37.9 µM | A549 22.3 µM | DU-145 6.62 µM | U-251 13.8 µM | UACC-257 12.4 µM | COLO 205 6.43 µM | HOP-62 20.2 µM | SF-539 5.51 µM | HCC 2998 20.1 µM | SK-MEL-28 19.1 µM | MDA-MB-435 6.73 µM | OVCAR-3 9.02 µM | BT-549 10.4 µM | Hs-578T 20.8 µM | KM12 19 µM | NCI-H226 8.02 µM | UACC-62 8.99 µM | NCI/ADR-RES 23.7 µM | SN12C 16.6 µM

COc1ccccc1/C=C/c1nc2ccccc2o1
inactive: SK-OV-3 > 10 µM | A549 > 10 µM | DU-145 > 10 µM | U-251 > 10 µM | UACC-257 > 10 µM | COLO 205 > 10 µM | HOP-62 > 10 µM | SF-539 > 10 µM | HCC 2998 > 10 µM | SK-MEL-28 > 10 µM | MDA-MB-435 > 10 µM | OVCAR-3 > 10 µM | BT-549 > 10 µM | Hs-578T > 10 µM | KM12 > 10 µM | NCI-H226 > 10 µM | UACC-62 > 10 µM | NCI/ADR-RES > 10 µM | SN12C > 10 µM

C(#Cc1ccccc1)SC1=C(c2ccccc2)S/C(=C(\SC#Cc2ccccc2)c2ccccc2)S1
inactive: SK-OV-3 > 100 µM | A549 > 100 µM | DU-145 > 100 µM | U-251 > 100 µM | UACC-257 > 100 µM | COLO 205 > 100 µM | HOP-62 > 100 µM | SF-539 > 100 µM | HCC 2998 > 100 µM | SK-MEL-28 > 100 µM | MDA-MB-435 > 100 µM | OVCAR-3 > 100 µM | BT-549 > 100 µM | Hs-578T > 100 µM | KM12 > 100 µM | NCI-H226 > 100 µM | UACC-62 > 100 µM | NCI/ADR-RES > 100 µM | SN12C > 100 µM

COc1ccc(OC)c2c3c(ccc12)C(c1ccccc1)OC3=O (centres undefined)
inactive: DMS-273 31.9 µM | SK-OV-3 > 100 µM | A549 85.5 µM | U-251 60.3 µM | UACC-257 37.7 µM | COLO 205 54 µM | HOP-62 73.5 µM | HCC 2998 > 100 µM | SK-MEL-28 52.4 µM | OVCAR-3 25.8 µM | KM12 56.5 µM | NCI-H226 > 100 µM | UACC-62 > 100 µM | SN12C 94.2 µM

C=CCC1(c2ccc(OC)cc2)C=CC(=O)CC1 (centres undefined)
inactive: SK-OV-3 > 100 µM | A549 > 100 µM | DU-145 > 100 µM | U-251 52.4 µM | UACC-257 > 100 µM | COLO 205 > 100 µM | HOP-62 > 100 µM | SF-539 > 100 µM | HCC 2998 > 100 µM | SK-MEL-28 > 100 µM | MDA-MB-435 66.4 µM | OVCAR-3 > 100 µM | BT-549 70.6 µM | Hs-578T 28.5 µM | KM12 > 100 µM | NCI-H226 > 100 µM | UACC-62 68.7 µM | NCI/ADR-RES 33.2 µM | SN12C > 100 µM

CC(C)(C)C1(COC(=O)c2ccc(N)cc2)COC1
inactive: SK-OV-3 58.1 µM | A549 52.6 µM | DU-145 > 100 µM | U-251 58.1 µM | UACC-257 43.5 µM | COLO 205 > 100 µM | HOP-62 > 100 µM | SF-539 32.4 µM | HCC 2998 57.5 µM | SK-MEL-28 > 100 µM | MDA-MB-435 53.3 µM | OVCAR-3 26.3 µM | BT-549 54.6 µM | Hs-578T > 100 µM | KM12 58.5 µM | NCI-H226 > 100 µM | UACC-62 55 µM | NCI/ADR-RES 58.3 µM | SN12C 94.6 µM
